The source made the active and inactive calls. No cut-off for these calls is given here.
Assays:
[1] = Antiproliferative activity against human DLD1 cells after 48 hrs by MTT assay; assay type: functional, cell-based; details: DLD-1, 48 h
[2] = Antioxidant activity assessed as ABTS radical scavenging activity after 6 mins by photometric analysis; assay type: physicochemical
SW480 [3] = test: Antiproliferative activity against human SW480 cells after 48 hrs by MTT assay; assay type: functional, cell-based; details: SW480, 48 h
[4] = Antioxidant activity assessed as DPPH radical scavenging activity after 30 mins by ELISA reader analysis; assay type: physicochemical
HepG2 = test: cells; details: Homo sapiens, HepG2, 48 h
[5] = Cytotoxicity against mouse BNL-CL2 cells after 48 hrs by MTT assay; assay type: cell-based; details: BNL CL.2, 48 h
HT-29 [6] = test: cells; details: Homo sapiens, HT-29, 48 h
Description: Antiproliferative activity against human HT-29 cells after 48 hrs by MTT assay

SW480 [7] = test: Cell cycle arrest in human SW480 cells assessed as accumulation at S phase at 50 uM after 48 hrs by propidium iodide staining-based flow cytometric analysis; assay type: functional
SW480 [8] = test: Cell cycle arrest in human SW480 cells assessed as accumulation at G2/M phase at 20 uM after 48 hrs by propidium iodide staining-based flow cytometric analysis (reference value: 8.57%); assay type: functional
HT-29 [9] = test: Antiproliferative activity against human HT-29 cells after 24 hrs by MTT assay; assay type: functional, cell-based; details: HT-29, 24 h
SW480 [10] = test: Antiproliferative activity against human SW480 cells after 24 hrs by MTT assay; assay type: functional, cell-based; details: SW480, 24 h
SW480 [11] = test: Cell cycle arrest in human SW480 cells assessed as accumulation at G2/M phase at 10 uM after 48 hrs by propidium iodide staining-based flow cytometric analysis (reference value: 8.57%); assay type: functional
SW480 [12] = test: Cell cycle arrest in human SW480 cells assessed as accumulation at G2/M phase at 5 uM after 48 hrs by propidium iodide staining-based flow cytometric analysis (reference value: 8.57%); assay type: functional
SW480 [13] = test: Induction of apoptosis in human SW480 cells assessed as late apoptotic cells at 20 uM after 48 hrs by annexin V-FITC/propidium iodide staining-based flow cytometric analysis; assay type: functional, cell-based
SW480 [14] = test: Induction of ROS generation in human SW480 cells assessed as superoxide anion level at 20 uM after 48 hrs by DHE staining-based fluorescence assay (reference value: 101.21 No_Unit); assay type: functional
SW480 [15] = test: Cell cycle arrest in human SW480 cells assessed as accumulation at G1 phase at 5 uM after 48 hrs by propidium iodide staining-based flow cytometric analysis (reference value: 65.24%); assay type: functional
SW480 [16] = test: Induction of apoptosis in human SW480 cells assessed as early apoptotic cells at 20 uM after 48 hrs by annexin V-FITC/propidium iodide staining-based flow cytometric analysis; assay type: functional, cell-based
[17] = Antiproliferative activity against human DLD1 cells after 24 hrs by MTT assay; assay type: functional, cell-based; details: DLD-1, 24 h
SW480 [18] = test: Antiproliferative activity against human SW480 cells after 72 hrs by MTT assay; assay type: functional, cell-based; details: SW480, 72 h
SW480 [19] = test: Cell cycle arrest in human SW480 cells assessed as accumulation at G1 phase at 20 uM after 48 hrs by propidium iodide staining-based flow cytometric analysis (reference value: 65.24%); assay type: functional
SW480 [20] = test: Cell cycle arrest in human SW480 cells assessed as accumulation at S phase at 10 uM after 48 hrs by propidium iodide staining-based flow cytometric analysis (reference value: 26.19%); assay type: functional
SW480 [21] = test: Cell cycle arrest in human SW480 cells assessed as accumulation at G1 phase at 10 uM after 48 hrs by propidium iodide staining-based flow cytometric analysis (reference value: 65.24%); assay type: functional
SW480 [22] = test: Induction of ROS generation in human SW480 cells assessed as superoxide anion level at 5 uM after 48 hrs by DHE staining-based fluorescence assay (reference value: 101.21); assay type: functional
SW480 [23] = test: Induction of apoptosis in human SW480 cells assessed as early apoptotic cells after 48 hrs by annexin V-FITC/propidium iodide staining-based flow cytometric analysis; assay type: functional, cell-based
SW480 [24] = test: Cell cycle arrest in human SW480 cells assessed as accumulation at S phase at 5 uM after 48 hrs by propidium iodide staining-based flow cytometric analysis (reference value: 26.19%); assay type: functional
SW480 [25] = test: Induction of ROS generation in human SW480 cells after 48 hrs by DHE staining-based fluorescence assay; assay type: functional, cell-based
SW480 [26] = test: Induction of apoptosis in human SW480 cells assessed as nuclear shrinkage at 20 uM after 48 hrs by Hoechst 33258 staining-based fluorescence microscopic analysis; assay type: functional, cell-based
SW480 [27] = test: Induction of ROS generation in human SW480 cells assessed as superoxide anion level at 10 uM after 48 hrs by DHE staining-based fluorescence assay (reference value: 101.21 No_Unit); assay type: functional
SW480 [28] = test: Induction of apoptosis in human SW480 cells assessed as DNA fragmentation at 20 uM after 48 hrs by Hoechst 33258 staining-based fluorescence microscopic analysis; assay type: functional, cell-based
[29] = Antiproliferative activity against human DLD1 cells after 72 hrs by MTT assay; assay type: functional, cell-based; details: DLD-1, 72 h
SW480 [30] = test: Cell cycle arrest in human SW480 cells assessed as accumulation at S phase at 20 uM after 48 hrs by propidium iodide staining-based flow cytometric analysis (reference value: 26.19%); assay type: functional
SW480 [31] = test: Induction of apoptosis in human SW480 cells assessed as chromatin condensation at 20 uM after 48 hrs by Hoechst 33258 staining-based fluorescence microscopic analysis; assay type: functional, cell-based
HT-29 [32] = test: Antiproliferative activity against human HT-29 cells after 72 hrs by MTT assay; assay type: functional, cell-based; details: HT-29, 72 h
[33] = Cytotoxicity against mouse BNL-CL2 cells assessed as induction of cell death at 20 uM after 48 hrs by MTT assay; assay type: cell-based; details: bnl-cl2, 48 h
SW480 [34] = test: Induction of apoptosis in human SW480 cells assessed as early apoptotic cells at 10 uM after 48 hrs by annexin V-FITC/propidium iodide staining-based flow cytometric analysis; assay type: functional, cell-based
SW480 [35] = test: Induction of apoptosis in human SW480 cells assessed as late apoptotic cells at 10 uM after 48 hrs by annexin V-FITC/propidium iodide staining-based flow cytometric analysis; assay type: functional, cell-based

CC(C)=CCOc1cc2oc(-c3ccccc3)cc(=O)c2c(O)c1O
IC50 [1]: > 20 µM
IC50 [2]: 18.8 µM
IC50 (SW480 [3]): 8.6 µM
IC50 [4]: 24 µM
IC50 (HepG2): > 20 µM
IC50 [5]: > 20 µM
IC50 (HT-29 [6]): > 20 µM

O=c1cc(-c2ccccc2)oc2cc(O)c(O)c(O)c12 [BAICALEIN]
Activity (SW480 [7]): Active
IC50 [1]: 27.9 µM
Activity (SW480 [8]): 7.95%
IC50 (HT-29 [9]): > 20 µM
IC50 (SW480 [10]): 16.9 µM
Activity (SW480 [11]): 7.05%
IC50 [2]: 15.5 µM
Activity (SW480 [12]): 7.75%
Activity (SW480 [13]): Active
Flu intensity (SW480 [14]): 98.79
Activity (SW480 [15]): 63.64%
Activity (SW480 [16]): Active
IC50 [17]: > 20 µM
IC50 (SW480 [18]): 11.6 µM
IC50 (SW480 [3]): 14.1 µM
Activity (SW480 [19]): 64.54%
IC50 [4]: 17.2 µM
Activity (SW480 [20]): 28.65%
Activity (SW480 [21]): 64.29%
Flu intensity (SW480 [22]): 104.84
Activity (SW480 [23]): inactive
Activity (SW480 [24]): 28.61%
IC50 [5]: > 40 µM
Activity (SW480 [25]): Dose-dependent effect
Activity (SW480 [26]): Active
Flu intensity (SW480 [27]): 99.49
Activity (SW480 [28]): Active
IC50 (HT-29 [6]): 18.1 µM
IC50 [29]: > 20 µM
Activity (SW480 [30]): 27.51%
Activity (SW480 [31]): Active
IC50 (HT-29 [32]): 18.4 µM

O=c1cc(-c2ccccc2)oc2cc(O)cc(O)c12 [CHRYSIN]
IC50 [1]: 18.6 µM
IC50 (SW480 [3]): 31.1 µM
IC50 (HepG2): 16.5 µM
IC50 [5]: > 40 µM
IC50 (HT-29 [6]): 19.5 µM

COc1c(O)cc(O)c2c(=O)cc(-c3ccccc3)oc12 [WOGONIN]
IC50 [1]: 36.9 µM
IC50 (SW480 [3]): 35.1 µM
IC50 (HepG2): 37.9 µM
IC50 [5]: > 40 µM
IC50 (HT-29 [6]): 39.6 µM

COc1cccc2c1C(=O)c1c(O)c3c(c(O)c1C2=O)C[C@@](O)(C(=O)CO)C[C@@H]3O[C@H]1C[C@H](N)[C@H](O)[C@H](C)O1 [DOXORUBICIN]
IC50 (SW480 [3]): 0.53 µM

Cc1c(C)c2c(c(C)c1O)CCC(C)(C(=O)O)O2 (stereo not drawn) [TROLOX]
IC50 [2]: 16.8 µM
IC50 [4]: 22.7 µM

CC(C)=CCC/C(C)=C/CC/C(C)=C/COc1cc(O)c2c(=O)cc(-c3ccccc3)oc2c1
IC50 [1]: > 20 µM
IC50 (SW480 [3]): > 20 µM
IC50 (HepG2): > 20 µM
IC50 [5]: > 20 µM
IC50 (HT-29 [6]): > 20 µM

O=c1[nH]cc(F)c(=O)[nH]1 [FLUOROURACIL]
IC50 (SW480 [3]): 32.7 µM
IC50 (HepG2): 40.2 µM
IC50 (HT-29 [6]): > 100 µM

CC(C)=CCC/C(C)=C/CC/C(C)=C/COc1cc2oc(-c3ccccc3)cc(=O)c2c(O)c1O
Activity [33]: < 20%
IC50 [1]: 4.88 µM
Activity (SW480 [34]): Active
Activity (SW480 [8]): 6.64%
Activity (SW480 [35]): Active
IC50 (HT-29 [9]): > 20 µM
IC50 (SW480 [10]): > 20 µM
Activity (SW480 [11]): 9.41%
IC50 [2]: 24 µM
Activity (SW480 [12]): 7.47%
Flu intensity (SW480 [14]): 192.86
Activity (SW480 [15]): 68.64%
IC50 [17]: 16.1 µM
IC50 (SW480 [18]): 1.26 µM
IC50 (SW480 [3]): 1.15 µM
Activity (SW480 [19]): 43.3%
IC50 [4]: 24.6 µM
Activity (SW480 [20]): 33.33%
Activity (SW480 [21]): 57.2%
Flu intensity (SW480 [22]): 102.13
Activity (SW480 [23]): Dose-dependent effect
IC50 (HepG2): > 20 µM
Activity (SW480 [24]): 23.88%
IC50 [5]: > 20 µM
Activity (SW480 [25]): Dose-dependent effect
Activity (SW480 [26]): Active
Flu intensity (SW480 [27]): 169.24
Activity (SW480 [28]): Active
IC50 (HT-29 [6]): 14.9 µM
IC50 [29]: 6.86 µM
Activity (SW480 [30]): 50%
Activity (SW480 [31]): Active
IC50 (HT-29 [32]): 15.4 µM

O=c1c(O)c(-c2ccc(O)c(O)c2)oc2cc(O)cc(O)c12 [QUERCETIN]
IC50 [2]: 7.26 µM
IC50 [4]: 8.41 µM

COc1cc(O)c2c(=O)cc(-c3ccccc3)oc2c1 [TECHTOCHRYSIN]
IC50 [1]: > 20 µM
IC50 (SW480 [3]): > 20 µM
IC50 (HepG2): > 20 µM
IC50 [5]: > 20 µM
IC50 (HT-29 [6]): > 20 µM

CC(C)=CCC/C(C)=C/COc1cc2oc(-c3ccccc3)cc(=O)c2c(O)c1O
IC50 [1]: 9.77 µM
IC50 [2]: 20.4 µM
IC50 (SW480 [3]): 2.84 µM
IC50 [4]: 24.3 µM
IC50 (HepG2): > 20 µM
IC50 [5]: > 20 µM
IC50 (HT-29 [6]): 17 µM

CCCCOc1cc2oc(-c3ccccc3)cc(=O)c2c(O)c1O
IC50 [1]: > 20 µM
IC50 [2]: 14 µM
IC50 (SW480 [3]): > 20 µM
IC50 [4]: 12.9 µM
IC50 (HepG2): > 20 µM
IC50 [5]: > 20 µM
IC50 (HT-29 [6]): 19.5 µM

COc1cc2oc(-c3ccccc3)cc(=O)c2c(O)c1O
IC50 [1]: 30.9 µM
IC50 [2]: 20.2 µM
IC50 (SW480 [3]): 29.4 µM
IC50 [4]: 28.4 µM
IC50 (HepG2): > 40 µM
IC50 [5]: > 40 µM
IC50 (HT-29 [6]): > 40 µM

CC(C)=CCC/C(C)=C/COc1cc(O)c2c(=O)cc(-c3ccccc3)oc2c1
IC50 [1]: > 20 µM
IC50 (SW480 [3]): > 20 µM
IC50 (HepG2): > 20 µM
IC50 [5]: > 20 µM
IC50 (HT-29 [6]): > 20 µM

O=C1O[C@H]([C@@H](O)CO)C(O)=C1O [ASCORBIC ACID]
IC50 [2]: 18.3 µM
IC50 [4]: 27.3 µM
